Assay results from patent publication US9867833B2, “Serine/threonine kinase inhibitors” (GENENTECH, INC., priority 2013, dated 2018).

Molecular target: human ERK-2 (Mitogen Activated Kinase 1) (Homo sapiens (Human), UniProt P28482)
Assay: ERK-2 Enzymatic Assay
Assay type: biochemical
Conditions: human ERK-2 enzyme 5 nM, 25 μM ATP, S/T17 peptide substrate; isomer = configuration of CR2R3
Experimental: Compounds were tested in an enzymatic assay using human ERK-2 (Mitogen Activated Kinase 1), recombinantly expressed as an n-terminal 6-His fusion protein in E. coli and corresponding to aa 8-360. […] Test compounds were diluted in DMSO in 3-fold serial dilutions at 100× final concentrations. […] The data collected from each well was fit to a straight line, and the resulting rates were used to calculate percent of control. Percent of control was plotted against compound concentration, and IC50 values were determined using a four-parameter fit.

Chain of human ERK-2 (Mitogen Activated Kinase 1) (P28482 8-360): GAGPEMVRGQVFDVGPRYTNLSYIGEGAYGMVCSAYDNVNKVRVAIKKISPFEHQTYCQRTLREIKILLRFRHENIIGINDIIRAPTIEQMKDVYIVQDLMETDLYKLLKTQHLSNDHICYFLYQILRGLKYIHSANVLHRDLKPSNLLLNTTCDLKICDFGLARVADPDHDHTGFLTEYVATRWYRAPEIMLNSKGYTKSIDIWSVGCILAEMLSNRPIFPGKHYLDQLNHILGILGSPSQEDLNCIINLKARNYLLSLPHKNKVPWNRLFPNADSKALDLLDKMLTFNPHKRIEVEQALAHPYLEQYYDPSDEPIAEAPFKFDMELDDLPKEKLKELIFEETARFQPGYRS

Row | IC50 [nM] | Structure (SMILES)
1 | 1000 | CC(C)[C@@H]1CC(=O)N(C)c2cc(-c3ccnc(Nc4ccnn4C)c3)cc3nnc1n23 [(S) I-87, 9-isopropyl-6-methyl-4-(2-((1-methyl-1H-pyrazol-5-yl)amino)pyridin-4-yl)-8,9-dihydro-1,2,2a^1,6-tetraazabenzo[cd]azulen-7(6H)-one]
2 | 6.36 | Cn1nccc1Nc1nccc(-c2cc3n4c(nnc4c2)[C@H](Cc2cccc(Cl)c2)CO3)n1 [(S) I-88, 4-(3-(3-chlorobenzyl)-3,4-dihydro-5-oxa-1,2,2a^1-triazaacenaphthylen-7-yl)-N-(1-methyl-1H-pyrazol-5-yl)pyrimidin-2-amine]
3 | < 0.02 | Cn1nccc1Nc1nccc(-c2cc3n4c(nnc4c2)[C@@H](Cc2cccc(Cl)c2)CO3)n1 [(R) I-88, 4-(3-(3-chlorobenzyl)-3,4-dihydro-5-oxa-1,2,2a^1-triazaacenaphthylen-7-yl)-N-(1-methyl-1H-pyrazol-5-yl)pyrimidin-2-amine]
4 | < 0.02 | CCC[C@H]1CCOc2cc(-c3ccnc(Nc4ccnn4C)n3)cc3nnc1n23 [(S) I-104, N-(1-methyl-1H-pyrazol-5-yl)-4-(9-propyl-8,9-dihydro-7H-6-oxa-1,2,2a^1-triazabenzo[cd]azulen-4-yl)pyrimidin-2-amine]
5 | 1.35 | CN1C[C@@H](Cc2ccc(F)cc2)c2nnc3cc(-c4ccnc(Nc5ccnn5C)n4)cc1n23 [(R) I-31, 4-(3-(4-fluorobenzyl)-5-methyl-4,5-dihydro-3H-1,2,2a^1,5-tetraazaacenaphthylen-7-yl)-N-(1-methyl-1H-pyrazol-5-yl)pyrimidin-2-amine]
6 | 718 | CC(C)C[C@H]1CC(=O)N(C)c2cc(-c3ccnc(Nc4ccnn4C)c3)cc3nnc1n23 [(S) I-75, 9-isobutyl-6-methyl-4-(2-((1-methyl-1H-pyrazol-5-yl)amino)pyridin-4-yl)-8,9-dihydro-1,2,2a^1,6-tetraazabenzo[cd]azulen-7(6H)-one]
7 | 0.036 | COc1ccc(C[C@@H]2CN(C)c3cc(-c4ccnc(Nc5ccnn5C)c4)cc4nnc2n34)cc1 [(R) I-18, 4-(3-(4-methoxybenzyl)-5-methyl-4,5-dihydro-3H-1,2,2a^1,5-tetraazaacenaphthylen-7-yl)-N-(1-methyl-1H-pyrazol-5-yl)pyridin-2-amine]
8 | < 0.02 | CN1C(=O)C[C@H](Cc2ccc(Cl)cc2)c2nnc3cc(-c4ccnc(Nc5ccnn5C)n4)cc1n23 [(S) I-22, 9-(4-chlorobenzyl)-6-methyl-4-(2-((1-methyl-1H-pyrazol-5-yl)amino)pyrimidin-4-yl)-8,9-dihydro-1,2,2a^1,6-tetraazabenzo[cd]azulen-7(6H)-one]
9 | < 0.02 | Cc1cc(C[C@H]2CCOc3cc(-c4ccnc(Nc5ccnn5C)n4)cc4nnc2n34)on1 [(R) I-93, N-(1-methyl-1H-pyrazol-5-yl)-4-(9-((3-methylisoxazol-5-yl)methyl)-8,9-dihydro-7H-6-oxa-1,2,2a^1-triazabenzo[cd]azulen-4-yl)pyrimidin-2-amine]
10 | 48.7 | CC(C)C[C@@H]1CN(C)c2cc(-c3ccnc(Nc4ccnn4C)c3)cc3nnc1n23 [(R) I-20, 4-(3-isobutyl-5-methyl-4,5-dihydro-3H-1,2,2a^1,5-tetraazaacenaphthylen-7-yl)-N-(1-methyl-1H-pyrazol-5-yl)pyridin-2-amine]
11 | 55.8 | COc1ccc(C[C@H]2CN(C)c3cc(-c4ccnc(Nc5ccnn5C)c4)cc4nnc2n34)cc1 [(S) I-18, 4-(3-(4-methoxybenzyl)-5-methyl-4,5-dihydro-3H-1,2,2a^1,5-tetraazaacenaphthylen-7-yl)-N-(1-methyl-1H-pyrazol-5-yl)pyridin-2-amine]
12 | < 0.02 | CN1C(=O)C[C@H](Cc2cccc(Cl)c2)c2nnc3cc(-c4ccnc(Nc5ccnn5C)n4)cc1n23 [Compound I-80, (S)-9-(3-chlorobenzyl)-6-methyl-4-(2-((1-methyl-1H-pyrazol-5-yl)amino)pyrimidin-4-yl)-8,9-dihydro-1,2,2a^1,6-tetraazabenzo[cd]azulen-7(6H)-one]
13 | 3.22 | CC(C)C[C@@H]1CC(=O)N(C)c2cc(-c3ccnc(Nc4ccnn4C)c3)cc3nnc1n23 [(R) I-75, 9-isobutyl-6-methyl-4-(2-((1-methyl-1H-pyrazol-5-yl)amino)pyridin-4-yl)-8,9-dihydro-1,2,2a^1,6-tetraazabenzo[cd]azulen-7(6H)-one]
14 | 2.75 | CC(C)C[C@@H]1CNc2cc(-c3ccnc(Nc4ccnn4C)n3)cc3nnc1n23 [(R) I-10, 4-(3-isobutyl-4,5-dihydro-3H-1,2,2a^1,5-tetraazaacenaphthylen-7-yl)-N-(1-methyl-1H-pyrazol-5-yl)pyrimidin-2-amine]
15 | < 0.02 | Cc1csc(C[C@H]2CCOc3cc(-c4ccnc(Nc5ccnn5C)n4)cc4nnc2n34)n1 [(R) I-109, N-(1-methyl-1H-pyrazol-5-yl)-4-(9-((4-methylthiazol-2-yl)methyl)-8,9-dihydro-7H-6-oxa-1,2,2a^1-triazabenzo[cd]azulen-4-yl)pyrimidin-2-amine]
16 | 19.5 | CCCC1COc2cc(-c3ccnc(Nc4ccnn4C)n3)cc3nnc1n23 (single isomer, unassigned) [(S) I-101, N-(1-methyl-1H-pyrazol-5-yl)-4-(3-propyl-3,4-dihydro-5-oxa-1,2,2a^1-triazaacenaphthylen-7-yl)pyrimidin-2-amine]
17 | < 0.02 | Cn1nccc1Nc1nccc(-c2cc3n4c(nnc4c2)[C@@H](Cc2ccc(Cl)c(F)c2)CN3)n1 [(S) I-14, 4-(3-(4-chloro-3-fluorobenzyl)-4,5-dihydro-3H-1,2,2a^1,5-tetraazaacenaphthylen-7-yl)-N-(1-methyl-1H-pyrazol-5-yl)pyrimidin-2-amine]
18 | 2.47 | COc1ccc(C[C@@H]2COc3cc(-c4ccnc(Nc5ccnn5C)n4)cc4nnc2n34)cc1F [(S) I-46, 4-(3-(3-fluoro-4-methoxybenzyl)-3,4-dihydro-5-oxa-1,2,2a^1-triazaacenaphthylen-7-yl)-N-(1-methyl-1H-pyrazol-5-yl)pyrimidin-2-amine]
19 | < 0.02 | COc1ccc(C[C@@H]2CC(=O)N(C)c3cc(-c4ccnc(Nc5ccnn5C)n4)cc4nnc2n34)c(F)c1 [(R) I-85, 9-(2-fluoro-4-methoxybenzyl)-6-methyl-4-(2-((1-methyl-1H-pyrazol-5-yl)amino)pyrimidin-4-yl)-8,9-dihydro-1,2,2a^1,6-tetraazabenzo[cd]azulen-7(6H)-one]
20 | 0.215 | CN1C(=O)N[C@H](Cc2cccc(F)c2)c2nnc3cc(-c4ccnc(Nc5ccnn5C)n4)cc1n23 [Compound I-39, (R)-9-(3-fluorobenzyl)-6-methyl-4-(2-((1-methyl-1H-pyrazol-5-yl)amino)pyrimidin-4-yl)-8,9-dihydro-1,2,2a^1,6,8-pentaazabenzo[cd]azulen-7(6H)-one]
21 | 5.04 | CN1C[C@@H](Cc2ccccc2)c2nnc3cc(-c4ccnc(Nc5ccnn5C)n4)cc1n23 [(R) I-9, 4-(3-benzyl-5-methyl-4,5-dihydro-3H-1,2,2a^1,5-tetraazaacenaphthylen-7-yl)-N-(1-methyl-1H-pyrazol-5-yl)pyrimidin-2-amine]
22 | < 0.02 | Cn1nccc1Nc1nccc(-c2cc3n4c(nnc4c2)[C@@H](Cc2ccc(Cl)cc2)CN3)n1 [(S) I-5, 4-(3-(4-chlorobenzyl)-4,5-dihydro-3H-1,2,2a^1,5-tetraazaacenaphthylen-7-yl)-N-(1-methyl-1H-pyrazol-5-yl)pyrimidin-2-amine]
23 | 18.2 | Cc1cc(C[C@@H]2CCOc3cc(-c4ccnc(Nc5ccnn5C)n4)cc4nnc2n34)on1 [(S) I-93, N-(1-methyl-1H-pyrazol-5-yl)-4-(9-((3-methylisoxazol-5-yl)methyl)-8,9-dihydro-7H-6-oxa-1,2,2a^1-triazabenzo[cd]azulen-4-yl)pyrimidin-2-amine]
24 | < 0.02 | Cn1nccc1Nc1nccc(-c2cc3n4c(nnc4c2)[C@@H](Cc2ccc(Cl)cc2)CCO3)n1 [(S) I-36, 4-(9-(4-chlorobenzyl)-8,9-dihydro-7H-6-oxa-1,2,2a^1-triazabenzo[cd]azulen-4-yl)-N-(1-methyl-1H-pyrazol-5-yl)pyrimidin-2-amine]
25 | 88.2 | CN1C(=O)C[C@@H](Cc2ccc(Cl)cc2)c2nnc3cc(-c4ccnc(Nc5ccnn5C)n4)cc1n23 [(R) I-22, 9-(4-chlorobenzyl)-6-methyl-4-(2-((1-methyl-1H-pyrazol-5-yl)amino)pyrimidin-4-yl)-8,9-dihydro-1,2,2a^1,6-tetraazabenzo[cd]azulen-7(6H)-one]
26 | 0.14 | Clc1cnn(C[C@@H]2CCOc3cc(-c4ccnc(NC5CCOCC5)n4)cc4nnc2n34)c1 [(S) I-110, 4-(9-((4-chloro-1H-pyrazol-1-yl)methyl)-8,9-dihydro-7H-6-oxa-1,2,2a^1-triazabenzo[cd]azulen-4-yl)-N-(tetrahydro-2H-pyran-4-yl)pyrimidin-2-amine]
27 | < 0.02 | CC(C)C[C@H]1CNc2cc(-c3ccnc(Nc4ccnn4C)n3)cc3nnc1n23 [(S) I-10, 4-(3-isobutyl-4,5-dihydro-3H-1,2,2a^1,5-tetraazaacenaphthylen-7-yl)-N-(1-methyl-1H-pyrazol-5-yl)pyrimidin-2-amine]
28 | 0.311 | Cn1nccc1Nc1nccc(-c2cc3n4c(nnc4c2)[C@H](Oc2cncc(Cl)c2)CCO3)n1 [(R) I-77, 4-(9-((5-chloropyridin-3-yl)oxy)-8,9-dihydro-7H-6-oxa-1,2,2a^1-triazabenzo[cd]azulen-4-yl)-N-(1-methyl-1H-pyrazol-5-yl)pyrimidin-2-amine]
29 | < 0.02 | Cn1nccc1Nc1nccc(-c2cc3n4c(nnc4c2)[C@@H](Cn2cc(C4CC4)cn2)CCO3)n1 [(R) I-56, 4-(9-((4-cyclopropyl-1H-pyrazol-1-yl)methyl)-8,9-dihydro-7H-6-oxa-1,2,2a^1-triazabenzo[cd]azulen-4-yl)-N-(1-methyl-1H-pyrazol-5-yl)pyrimidin-2-amine]
